Columns and labels:
A-375 [1] = assay: In vitro tumor cell growth inhibitory activity against Human melanoma cell lines. A375; format: functional, cell-based
A-431 = assay: In vitro tumor cell growth inhibitory activity against Human […] A431 cell lines; format: functional, cell-based
HCT-15 = assay: In vitro tumor cell growth inhibitory activity against HCT-15; format: functional, cell-based; settings: Homo sapiens
HOS = assay: In vitro tumor cell growth inhibitory activity against Human osteosarcoma cell lines. HOS; format: functional, cell-based
HT-1080 = assay: In vitro tumor cell growth inhibitory activity against Human fibrosarcoma HT1080 cell lines.; format: functional, cell-based
[2] = tested on: KATO III stomach cancer cell line; assay: In vitro tumor cell growth inhibitory activity of Human stomach (adenocarcinoma) cell lines. KATO-III; format: functional, cell-based
KK-47 cell line = assay: In vitro tumor cell growth inhibitory activity against Human bladder carcinoma cell lines. kK-47; format: functional, cell-based
KB [3] = assay: In vitro tumor cell growth inhibitory activity against human nasopharyngeal KB cell lines; format: functional, cell-based
L1210 = assay: In vitro tumor cell growth inhibitory activity against mouse leukemia L1210 cell lines.; format: functional, cell-based
MDA-MB-231 = assay: In vitro tumor cell growth inhibitory activity against Human breast (adenocarcinoma) cell lines. […]; format: functional, cell-based
MKN-28 = assay: In vitro tumor cell growth inhibitory activity against Human stomach (adenocarcinoma) cell lines. MKN-28; format: functional, cell-based
MCF7 = assay: In vitro tumor cell growth inhibitory activity against Human breast (adenocarcinoma) cell lines. MCF-7; format: functional, cell-based
MG-63 = assay: In vitro tumor cell growth inhibitory activity against Human osteosarcoma cell lines MG-63.; format: functional, cell-based
Lu-65 = assay: In vitro tumor cell growth inhibitory activity against Human lung large-cell carcinoma Lu-65 cell lines.; format: functional, cell-based
Mus musculus [4] = assay: In vivo inhibitory activity against H-81 tumor xenograft of stomach in nude mice at a concentration of 2 mg/kg for 10 days; format: functional
Mus musculus [5] = assay: In vivo inhibitory activity against Hucc-T1 cells tumor xenograft of bile duct in nude mice at a concentration of 2 mg/kg for 10 days; format: functional
Mus musculus [6] = assay: In vivo inhibitory activity against JRC-11 cell tumor xenograft of renal in nude mice at a concentration of 2 mg/kg for 10 days; format: functional
Mus musculus [7] = assay: In vivo inhibitory activity against KM12C tumor xenograft of […] in nude mice at a concentration of 2 mg/kg for 10 days; format: functional
Mus musculus [8] = assay: In vivo inhibitory activity against AZ-521 tumor xenograft of stomach in nude mice at a concentration of 2 mg/kg for 10 days; format: functional
Mus musculus [9] = assay: In vivo inhibitory activity against BxPC-3 tumor xenograft of pancreas in nude mice at a concentration of 2 mg/kg for 10 days; format: functional
Mus musculus [10] = assay: In vivo inhibitory activity against CO-3 tumor xenograft of […] in nude mice at a concentration of 2 mg/kg for 10 days; format: functional
Mus musculus [11] = assay: In vivo inhibitory activity against DLD-1 tumor xenograft of […] in nude mice at a concentration of 2 mg/kg for 10 days; format: functional
Mus musculus [12] = assay: In vivo inhibitory activity against H-31 cells tumor xenograft of breast in nude mice at a concentration of 2 mg/kg for 10 days; format: functional
Mus musculus [13] = assay: In vivo inhibitory activity against NUGC-3 tumor xenograft of stomach in nude mice at a concentration of 2 mg/kg for 10 days; format: functional
Mus musculus [14] = assay: In vivo inhibitory activity against PAN-12 tumor xenograft of pancreas in nude mice at a concentration of 2 mg/kg for 10 days; format: functional
NAKAJIMA = assay: In vitro tumor cell growth inhibitory activity against Human stomach (adenocarcinoma) cell lines. h) NAKAJIMA; format: functional, cell-based
NCI-H417 = assay: In vitro tumor cell growth inhibitory activity against Human lung small-cell carcinoma cell NCI-H-417; format: functional, cell-based
NUGC-4 = assay: In vitro tumor cell growth inhibitory activity of Human stomach (adenocarcinoma) cell lines. NUGC-4; format: functional, cell-based
PC10 = assay: In vitro tumor cell growth inhibitory activity against Human lung (adenocarcinoma) cell lines PC-10; format: functional, cell-based
PC-8 = assay: In vitro tumor cell growth inhibitory activity against Human lung (adenocarcinoma) cell lines. PC-8; format: functional, cell-based
PC-9 = assay: In vitro tumor cell growth inhibitory activity against Human lung (adenocarcinoma) cell lines PC-9; format: functional, cell-based
[15] = In vitro tumor cell growth inhibitory activity against Human lung squamous-cell carcinoma cell lines QG-95; format: functional
QG-56 = assay: In vitro tumor cell growth inhibitory activity against Human lung squamous-cell carcinoma cell linesQG-56; format: functional, cell-based
QG-90 = assay: In vitro tumor cell growth inhibitory activity against Human lung small-cell carcinoma cell lines. QG-90; format: functional, cell-based
QG-96 = assay: In vitro tumor cell growth inhibitory activity against Human lung small-cell carcinoma cellb) QG-96; format: functional, cell-based
SW48 [16] = assay: In vitro tumor cell growth inhibitory activity against Human colon (adenocarcinoma) cell lines. SW-48; format: functional, cell-based
SW480 [17] = assay: In vitro tumor cell growth inhibitory activity against Human colon (adenocarcinoma) cell lines. SW-480; format: functional, cell-based
SK-MEL-28 = assay: In vitro tumor cell growth inhibitory activity against Human melanoma cell lines. SK-MEL-28; format: functional, cell-based
ST-KM-1 = assay: In vitro tumor cell growth inhibitory activity against Human stomach (adenocarcinoma) cell linesST-KM; format: functional, cell-based
T-24 = assay: In vitro tumor cell growth inhibitory activity against Human bladder carcinoma cell lines. T24; format: functional, cell-based
fLS = assay: In vitro tumor cell growth inhibitory activity of Human stomach (adenocarcinoma) cell lines. fLS; format: functional, cell-based
YMB-1-E = assay: In vitro tumor cell growth inhibitory activity against Human breast (adenocarcinoma) cell lines YMB-1-E.; format: functional, cell-based
KB [18] = assay: In vitro tumor cell growth inhibitory activity against Human melanoma cell lines. KB; format: functional, cell-based
PANC-1 = assay: In vitro tumor cell growth inhibitory activity against Human pancreas (adenocarcinoma) cell lines. PANC-1; format: functional, cell-based
NCI-H82 (Homo sapiens) = assay: In vitro tumor cell growth inhibitory activity against Human lung small-cell carcinoma cellc) NCI-H-82
[19] = tested on: MIA PaCa-2 (Homo sapiens); assay: In vitro tumor cell growth inhibitory activity against Human pancreas (adenocarcinoma) cell Mia-PaCa-2
[20] = In vitro tumor cell growth inhibitory activity against Human stomach (adenocarcinoma) cell lines STSA-1
MKN-45 (Homo sapiens) = assay: In vitro tumor cell growth inhibitory activity against Human stomach (adenocarcinoma) cell lines. MKN-45
A-375 [21] = assay: In vitro tumor cell growth inhibitory activity against Human melanoma cell lines A375; format: functional, cell-based
COLO 320DM = assay: In vitro tumor cell growth inhibitory activity against i Human colon (adenocarcinoma) cell lines. COLO 320DM; format: functional, cell-based
Mus musculus [22] = assay: In vivo inhibitory activity against Hucc-T1 cells tumor xenograft of bile duct in nude mice at a concentration of 0.25 mg/kg for 10 days; format: functional
Mus musculus [23] = assay: In vivo inhibitory activity against JRC-11 cells tumor xenograft of renal in nude mice at a concentration of 0.25 mg/kg for 10 days; format: functional
Mus musculus [24] = assay: In vivo tumor cell growth inhibitory activity against CO-3 tumor xenograft of colon in nude mice at a concentration of 0.25 mg/kg for 10 days; format: functional
Mus musculus [25] = assay: In vivo inhibitory activity against DLD-1 tumor xenograft of colon in nude mice at a concentration of 0.25 mg/kg for 10 days; format: functional
Mus musculus [26] = assay: In vivo inhibitory activity against H-31 cells tumor xenograft of breast in nude mice at a concentration of 0.25 mg/kg for 10 days; format: functional
Mus musculus [27] = assay: In vivo tumor cell growth inhibitory activity against KM12C tumor xenograft of […] in nude mice at a concentration of 0.25 mg/kg for 10 days; format: functional
Mus musculus [28] = assay: In vivo tumor cell growth inhibitory activity against NUGC-3 tumor xenograft of stomach in nude mice at a concentration of 0.25 mg/kg for 10 days; format: functional
Mus musculus [29] = assay: In vivo tumor cell growth inhibitory activity of CO-3 tumor xenograft of […] in nude mice at a concentration of 0.25 mg/kg for 10 days; format: functional
Mus musculus [30] = assay: In vivo tumor cell growth inhibitory activity of H-81 tumor xenograft of stomach in nude mice at a concentration of 0.25 mg/kg for 10 days; format: functional
SW48 [31] = assay: In vitro tumor cell growth inhibitory activity against i Human colon (adenocarcinoma) cell lines. SW-48; format: functional, cell-based
SW480 [32] = assay: In vitro tumor cell growth inhibitory activity against i Human colon (adenocarcinoma) cell lines. SW-480; format: functional, cell-based
Mus musculus [33] = assay: In vivo inhibitory activity against PAN-12 tumor xenograft of pancreas in nude mice at a concentration of 0.25 mg/kg for 10 days; format: functional

Structure (SMILES): C#C[C@]1(O)[C@@H](CO)O[C@@H](n2ccc(=O)[nH]c2=O)[C@@H]1O
- IC50 (A-375 [1]): 21 nM
- IC50 (A-431): 290 nM
- IC50 (HCT-15): 75 nM
- IC50 (HOS): 1800 nM
- IC50 (HT-1080): 160 nM
- IC50 [2]: 31 nM
- IC50 (KK-47 cell line): 89 nM
- IC50 (KB [3]): 29 nM
- IC50 (L1210): 130 nM
- IC50 (MDA-MB-231): > 1900 nM
- IC50 (MKN-28): 65 nM
- IC50 (MCF7): 200 nM
- IC50 (MG-63): > 1900 nM
- IC50 (Lu-65): 89 nM
- Inhibition ratio (Mus musculus [4]): 92%
- Inhibition ratio (Mus musculus [5]): 64%
- Inhibition ratio (Mus musculus [6]): 75%
- Inhibition ratio (Mus musculus [7]): 81%
- Inhibition ratio (Mus musculus [8]): 81%
- Inhibition ratio (Mus musculus [9]): 35%
- Inhibition ratio (Mus musculus [10]): 90%
- Inhibition ratio (Mus musculus [11]): 73%
- Inhibition ratio (Mus musculus [12]): 82%
- Inhibition ratio (Mus musculus [13]): 54%
- Inhibition ratio (Mus musculus [14]): 81%
- IC50 (NAKAJIMA): 780 nM
- IC50 (NCI-H417): 110 nM
- IC50 (NUGC-4): 220 nM
- IC50 (PC10): > 1900 nM
- IC50 (PC-8): 330 nM
- IC50 (PC-9): 190 nM
- IC50 [15]: 280 nM
- IC50 (QG-56): 150 nM
- IC50 (QG-90): 1000 nM
- IC50 (QG-96): 380 nM
- IC50 (SW48 [16]): > 1900 nM
- IC50 (SW480 [17]): 340 nM
- IC50 (SK-MEL-28): 86 nM
- IC50 (ST-KM-1): 86 nM
- IC50 (T-24): 210 nM
- IC50 (fLS): 230 nM
- IC50 (YMB-1-E): > 1900 nM
- IC50 (KB [18]): 29 nM
- IC50 (PANC-1): > 1900 nM
- IC50 (NCI-H82 (Homo sapiens)): 230 nM
- IC50 [19]: 54 nM
- IC50 [20]: 1900 nM
- IC50 (MKN-45 (Homo sapiens)): 52 nM

Structure (SMILES): C#C[C@]1(O)[C@@H](CO)O[C@@H](n2ccc(N)nc2=O)[C@@H]1O
- IC50 (A-375 [21]): 26 nM
- IC50 (A-431): 33 nM
- IC50 (COLO 320DM): 20 nM
- IC50 (HCT-15): 8.2 nM
- IC50 (HOS): 1000 nM
- IC50 (HT-1080): 73 nM
- IC50 [2]: 31 nM
- IC50 (KK-47 cell line): 120 nM
- IC50 (KB [3]): 28 nM
- IC50 (L1210): 16 nM
- IC50 (MDA-MB-231): 24 nM
- IC50 (MKN-28): 210 nM
- IC50 (MCF7): 69 nM
- IC50 (MG-63): 150 nM
- IC50 (Lu-65): 32 nM
- Inhibition ratio (Mus musculus [22]): 55%
- Inhibition ratio (Mus musculus [23]): 73%
- Inhibition ratio (Mus musculus [24]): 88%
- Inhibition ratio (Mus musculus [25]): 78%
- Inhibition ratio (Mus musculus [26]): 76%
- Inhibition ratio (Mus musculus [27]): 83%
- Inhibition ratio (Mus musculus [28]): 84%
- Inhibition ratio (Mus musculus [29]): 80%
- Inhibition ratio (Mus musculus [30]): 92%
- IC50 (NAKAJIMA): 170 nM
- IC50 (NCI-H417): 43 nM
- IC50 (NUGC-4): 24 nM
- IC50 (PC10): 160 nM
- IC50 (PC-8): 90 nM
- IC50 (PC-9): 110 nM
- IC50 [15]: 210 nM
- IC50 (QG-56): 45 nM
- IC50 (QG-90): 130 nM
- IC50 (QG-96): 390 nM
- IC50 (SW48 [31]): > 1900 nM
- IC50 (SW480 [32]): 260 nM
- IC50 (ST-KM-1): 47 nM
- IC50 (T-24): 28 nM
- IC50 (fLS): 21 nM
- IC50 (YMB-1-E): 160 nM
- Inhibition ratio (Mus musculus [33]): 75%
- IC50 (PANC-1): > 1900 nM
- IC50 (NCI-H82 (Homo sapiens)): 120 nM
- IC50 [19]: 15 nM
- IC50 [20]: 150 nM
- IC50 (MKN-45 (Homo sapiens)): 8.8 nM
